Laboratory results taken from US20120252729A1, “PTH-CONTAINING THERAPEUTIC/PROPHYLACTIC AGENT FOR OSTEOPOROSIS, CHARACTERIZED IN THAT PTH IS ADMINISTERED ONCE A WEEK IN A UNIT DOSE OF 100 TO 200 UNITS” (ASAHI KASEI PHARMA CORPORATION, priority 2009, published 2012).

What was measured:
[1] = test system: patients diagnosed with primary osteoporosis; assay: Working Example 1: lumbar spine bone mineral density by DXA, teriparatide acetate 5 or 100 units once a week plus calcium agent; type: in vivo, human; details: mean ± SD
Procedure: Both the 5 and 100 unit groups were administered two tablets of a calcium agent (containing 500 mg of precipitated calcium carbonate [200 mg as calcium] per tablet) once a day.
The osteoporosis patients were classified as condition shown in Table 1 based on the bone fracture risk factors present, as in Non-patent Reference 13, and compared. High-risk patients were defined as having all three factors involving age, prevalent vertebral fractures, and bone density or bone atrophy; low-risk patients were defined as other than the above.

[2] = test system: high-risk patients diagnosed with primary osteoporosis; assay: Working Example 2: bone density of lumbar spine and femur by DXA; type: in vivo, human; details: 200 units weekly
Procedure: For the bone density of the femur, only the left side of the proximal part of the femur, rotated 20°, was measured at the start and every 24 weeks thereafter using dual-energy x-ray absorptiometry (DXA).

[3] = history of calcium L-aspartate, 24 W
[4] = history of calcium L-aspartate, 48 W
[5] = history of calcium L-aspartate, 72 W
[6] = history of calcium lactate, 24 W
[7] = history of calcium lactate, 48 W
[8] = history of calcium lactate, 72 W
[9] = history of raloxifene hydrochloride, 24 W
[10] = history of raloxifene hydrochloride, 48 W
[11] = history of raloxifene hydrochloride, 72 W

teriparatide acetate was tested, and the “Lumbar spine bone mineral density (% change)” value ([1]; high-risk patients, 5 units once a week, after 26 W) was −0.9 ± 4.4%, the “Lumbar spine bone mineral density (% change)” value ([1]; high-risk patients, 5 units once a week, after 52 W) was −0.6 ± 4.1% and the “Lumbar spine bone mineral density (% change)” value ([1]; high-risk patients, 5 units once a week, after 78 W) was 0.4 ± 4.1%. For the same substance, the “Lumbar spine bone mineral density (% change)” value ([1]; high-risk patients, 5 units once a week, after 104 W) was 0.4 ± 4.0%, the “Lumbar spine bone mineral density (% change)” value ([1]; high-risk patients, 5 units once a week, final check) was −0.1 ± 4.8% and the “Lumbar spine bone mineral density (% change)” value ([1]; high-risk patients, 100 units once a week, after 26 W) was 3.3 ± 4.5 %. For the same substance, the “Lumbar spine bone mineral density (% change)” value ([1]; high-risk patients, 100 units once a week, after 52 W) was 4.3 ± 4.5 %, the “Lumbar spine bone mineral density (% change)” value ([1]; high-risk patients, 100 units once a week, after 78 W) was 4.0 ± 4.5 % and the “Lumbar spine bone mineral density (% change)” value ([1]; high-risk patients, 100 units once a week, after 104 W) was 4.9 ± 4.2 %. For the same substance, the “Lumbar spine bone mineral density (% change)” value ([1]; high-risk patients, 100 units once a week, final check) was 4.5 ± 4.6 %, the “Lumbar spine bone mineral density (% change)” value ([1]; low-risk patients, 5 units once a week, after 26 W) was −0.6 ± 6.4% and the “Lumbar spine bone mineral density (% change)” value ([1]; low-risk patients, 5 units once a week, after 52 W) was −0.7 ± 6.2%. For the same substance, the “Lumbar spine bone mineral density (% change)” value ([1]; low-risk patients, 5 units once a week, after 78 W) was 1.9 ± 7.5%, the “Lumbar spine bone mineral density (% change)” value ([1]; low-risk patients, 5 units once a week, final check) was −0.6 ± 5.7% and the “Percentage change in bone density (%), lumbar spine” value ([2]; history of Alfacalcidol, 24 W) was 3.11%. For the same substance, the “Percentage change in bone density (%), neck of femur” value ([2]; history of Alfacalcidol, 24 W) was 1.64%, the “Percentage change in bone density (%), proximal femur” value ([2]; history of Alfacalcidol, 24 W) was 2.77% and the “Percentage change in bone density (%), lumbar spine” value ([2]; history of Alfacalcidol, 48 W) was 5.47%. For the same substance, the “Percentage change in bone density (%), neck of femur” value ([2]; history of Alfacalcidol, 48 W) was 0.85%, the “Percentage change in bone density (%), proximal femur” value ([2]; history of Alfacalcidol, 48 W) was 2.31% and the “Percentage change in bone density (%), lumbar spine” value ([2]; history of Alfacalcidol, 72 W) was 6.47%. The “Percentage change in bone density (%), neck of femur” value ([2]; history of Alfacalcidol, 72 W) was 2.19%, the “Percentage change in bone density (%), proximal femur” value ([2]; history of Alfacalcidol, 72 W) was 2.31% and the “Percentage change in bone density (%), lumbar spine” value ([2]; history of calcitriol, 24 W) was 3.50%. For the same substance, the “Percentage change in bone density (%), neck of femur” value ([2]; history of calcitriol, 24 W) was −0.60%, the “Percentage change in bone density (%), proximal femur” value ([2]; history of calcitriol, 24 W) was −1.40% and the “Percentage change in bone density (%), lumbar spine” value ([2]; history of calcitriol, 48 W) was 4.40%. For the same substance, the “Percentage change in bone density (%), neck of femur” value ([2]; history of calcitriol, 48 W) was −4.03%, the “Percentage change in bone density (%), proximal femur” value ([2]; history of calcitriol, 48 W) was −1.05% and the “Percentage change in bone density (%), lumbar spine” value ([2]; history of calcitriol, 72 W) was 6.38%. The “Percentage change in bone density (%), neck of femur” value ([2]; history of calcitriol, 72 W) was −3.53%, the “Percentage change in bone density (%), proximal femur” value ([2]; history of calcitriol, 72 W) was −0.04% and the “Percentage change in bone density (%), lumbar spine” value [2, 3] was 3.78%. For the same substance, the “Percentage change in bone density (%), neck of femur” value [2, 3] was 1.44%, the “Percentage change in bone density (%), proximal femur” value [2, 3] was 1.76% and the “Percentage change in bone density (%), lumbar spine” value [2, 4] was 6.16%. The “Percentage change in bone density (%), neck of femur” value [2, 4] was 1.88%, the “Percentage change in bone density (%), proximal femur” value [2, 4] was 2.28% and the “Percentage change in bone density (%), lumbar spine” value [2, 5] was 5.85%. For the same substance, the “Percentage change in bone density (%), neck of femur” value [2, 5] was 4.17%, the “Percentage change in bone density (%), proximal femur” value [2, 5] was 3.69% and the “Percentage change in bone density (%), lumbar spine” value [2, 6] was 1.96%. The “Percentage change in bone density (%), neck of femur” value [2, 6] was 0.30%, the “Percentage change in bone density (%), proximal femur” value [2, 6] was 1.78% and the “Percentage change in bone density (%), lumbar spine” value [2, 7] was 3.45%. The “Percentage change in bone density (%), neck of femur” value [2, 7] was −4.35%, the “Percentage change in bone density (%), proximal femur” value [2, 7] was −1.68% and the “Percentage change in bone density (%), lumbar spine” value [2, 8] was 4.93%. For the same substance, the “Percentage change in bone density (%), neck of femur” value [2, 8] was −2.53%, the “Percentage change in bone density (%), proximal femur” value [2, 8] was −3.20% and the “Percentage change in bone density (%), lumbar spine” value ([2]; history of elcatonin, 24 W) was 3.95%. For the same substance, the “Percentage change in bone density (%), neck of femur” value ([2]; history of elcatonin, 24 W) was 1.62%, the “Percentage change in bone density (%), proximal femur” value ([2]; history of elcatonin, 24 W) was 3.86% and the “Percentage change in bone density (%), lumbar spine” value ([2]; history of elcatonin, 48 W) was 3.59%. For the same substance, the “Percentage change in bone density (%), neck of femur” value ([2]; history of elcatonin, 48 W) was 0.72%, the “Percentage change in bone density (%), proximal femur” value ([2]; history of elcatonin, 48 W) was 3.44% and the “Percentage change in bone density (%), lumbar spine” value ([2]; history of elcatonin, 72 W) was 5.36%. For the same substance, the “Percentage change in bone density (%), neck of femur” value ([2]; history of elcatonin, 72 W) was 3.15%, the “Percentage change in bone density (%), proximal femur” value ([2]; history of elcatonin, 72 W) was 4.41% and the “Percentage change in bone density (%), lumbar spine” value ([2]; history of menatetrenone, 24 W) was 2.70%. For the same substance, the “Percentage change in bone density (%), neck of femur” value ([2]; history of menatetrenone, 24 W) was 0.72%, the “Percentage change in bone density (%), proximal femur” value ([2]; history of menatetrenone, 24 W) was 0.60% and the “Percentage change in bone density (%), lumbar spine” value ([2]; history of menatetrenone, 48 W) was 3.04%. For the same substance, the “Percentage change in bone density (%), neck of femur” value ([2]; history of menatetrenone, 48 W) was −3.18%, the “Percentage change in bone density (%), proximal femur” value ([2]; history of menatetrenone, 48 W) was −0.56% and the “Percentage change in bone density (%), lumbar spine” value ([2]; history of menatetrenone, 72 W) was 4.32%. The “Percentage change in bone density (%), neck of femur” value ([2]; history of menatetrenone, 72 W) was −0.78%, the “Percentage change in bone density (%), proximal femur” value ([2]; history of menatetrenone, 72 W) was −1.40% and the “Percentage change in bone density (%), lumbar spine” value [2, 9] was 1.77%. For the same substance, the “Percentage change in bone density (%), neck of femur” value [2, 9] was 0.21%, the “Percentage change in bone density (%), proximal femur” value [2, 9] was 2.44% and the “Percentage change in bone density (%), lumbar spine” value [2, 10] was 4.96%. For the same substance, the “Percentage change in bone density (%), neck of femur” value [2, 10] was 1.03%, the “Percentage change in bone density (%), proximal femur” value [2, 10] was 2.26% and the “Percentage change in bone density (%), lumbar spine” value [2, 11] was 4.59%. The “Percentage change in bone density (%), neck of femur” value [2, 11] was −0.51%, the “Percentage change in bone density (%), proximal femur” value [2, 11] was 3.03% and the “Change in lumbar vertebral density (%), mean” value ([2]; mild impairment (≧50-<80), after 24 W) was 3.9%.
